# From patent US9394268B2, “(E)-1-(5-methoxy-2,2-dimethyl-2H-chromen-8-yl)-3-(4-methoxyphenyl)prop-2-en-1-one and analogs thereof, as well as preparation method and use thereof” (Sichuan University, priority 2012, dated 2016)
# Tests used:
# Assay type in all cases: cell-based
# HepG2 = test: Cell proliferative assay (MTT), HepG2; details: Homo sapiens, 72 h incubation, read-out: IC50s HepG2
# Method in brief: (§1)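 Cytotoxicity is determined by MTT assay after 72 h of compound treatment at multiple doses. The IC50 is derived from dose-response curves and reported as mean±SEM over at least three independent runs.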
# K562 = test: Cell proliferative assay (MTT), K562; details: Homo sapiens, 72 h incubation, read-out: IC50s K562
# Method in brief: as §1
# A549 = test: Cell proliferative assay (MTT), A549; details: Homo sapiens, 72 h incubation, read-out: IC50s A549
# Method in brief: as §1
# A375 = test: Cell proliferative assay (MTT), A375; details: Homo sapiens, A-375, 72 h incubation, read-out: IC50s A375
# Method in brief: as §1
# SMMC-7221 = test: Cell proliferative assay (MTT), SMMC-7221; details: 72 h incubation, read-out: IC50s SMMC-7221
# Method in brief: as §1
# LO2 = test: Cell proliferative assay (MTT), LO2; details: Homo sapiens, L02, 72 h incubation, read-out: IC50s LO2
# Method in brief: as §1
# tumor cells = test: Cell proliferative assay (MTT), summary over tumor cells; details: summary in words of Table 1; colon, liver, leukemia lines
# Protocol: (§2) The synthesized compounds were evaluated for their cytotoxin activity against suspended tumor cells. These cells were seeded on 96-well plates and incubated for 24 h. Selected compounds were added at various doses and incubated for 72 h, MTT was then added, and the absorbance was measured at a wavelength of 590 nm. IC50 values are expressed as the mean±SEM from the dose-response curves of at least three independent experiments.
# SW620 = test: Cell proliferative assay (MTT), SW620; details: Homo sapiens, SW-620, 72 h incubation, read-out: IC50s SW620
# Protocol: as §2
# HT29 = test: Cell proliferative assay (MTT), HT29; details: Homo sapiens, HT-29, 72 h incubation, read-out: IC50s HT29
# Protocol: as §2
# HCT116 = test: Cell proliferative assay (MTT), HCT116; details: Homo sapiens, HCT-116, 72 h incubation, read-out: IC50s HCT116
# Protocol: as §2
SMILES,IC50 (HepG2),IC50 (K562),IC50 (A549),IC50 (A375),IC50 (SMMC-7221),IC50 (LO2),inhibitory activity against tumor cells (tumor cells),IC50 (SW620),IC50 (HT29),IC50 (HCT116)
"C=CC(=O)Oc1ccc(C(=O)/C=C/c2ccc(N(CC)CC)cc2)c2c1C=CC(C)(C)O2 [SKLBC-49, (E)-8-(3-(4-(diethylamino)phenyl)acryloyl)-2,2-dimethyl-2H-chromen-5-yl acrylate]",5.55 µM,2.92 µM,6.9 µM,4.1 µM,8.6 µM,8.6 µM,better inhibitory activity,–,–,–
"CCN(CC)c1ccc(/C=C/C(=O)c2ccc(OC(=O)c3ccco3)c3c2OC(C)(C)C=C3)cc1 [SKLBC-50, (E)-8-(3-(4-(diethylamino)phenyl)acryloyl)-2,2-dimethyl-2H-chromen-5-yl furan-2-carboxylate]",0.703 µM,0.59 µM,1.61 µM,9.2 µM,9.7 µM,> 20 µM,better inhibitory activity,–,–,–
"COc1ccc(/C=C/C(=O)c2ccc(OC)c3c2OC(C)(C)C=C3)cc1O [SKLBC-28, (E)-3-(3-hydroxy-4-methoxyphenyl)-1-(5-methoxy-2,2-dimethyl-2H-chromen-8-yl)prop-2-en-1-one]",0.78 µM,3.55 µM,–,–,–,–,better inhibitory activity,0.67 µM,1.47 µM,1.63 µM
"CCN(CC)c1ccc(/C=C/C(=O)c2ccc(OC(=O)C(C)C)c3c2OC(C)(C)C=C3)cc1 [SKLBC-52, (E)-8-(3-(4-(diethylamino)phenyl)acryloyl)-2,2-dimethyl-2H-chromen-5-yl isobutyrate]",0.59 µM,0.317 µM,0.94 µM,0.61 µM,0.78 µM,> 10 µM,better inhibitory activity,–,–,–
"CCOc1ccc(C(=O)/C=C/c2ccc(N(CC)CC)cc2)c2c1C=CC(C)(C)O2 [SKLBC-41, (E)-3-(4-(diethylamino)phenyl)-1-(5-ethoxy-2,2-dimethyl-2H-chromen-8-yl)prop-2-en-1-one]",–,–,–,–,–,–,better inhibitory activity,–,–,–
"CCN(CC)c1ccc(/C=C/C(=O)c2ccc(OC(=O)Cc3cccc(C(F)(F)F)c3)c3c2OC(C)(C)C=C3)cc1 [SKLBC-55, (E)-8-(3-(4-(diethylamino)phenyl)acryloyl)-2,2-dimethyl-2H-chromen-5-yl 2-(3-(trifluoromethyl)phenyl)acetate]",1.07 µM,1.05 µM,0.5 µM,0.48 µM,1.62 µM,> 10 µM,better inhibitory activity,–,–,–
"CCN(CC)c1ccc(/C=C/C(=O)c2ccc(OS(C)(=O)=O)c3c2OC(C)(C)C=C3)cc1 [SKLBC-47, (E)-8-(3-(4-(diethylamino)phenyl)acryloyl)-2,2-dimethyl-2H-chromen-5-yl methanesulfonate]",0.185 µM,0.528 µM,8.45 µM,0.45 µM,0.23 µM,> 20 µM,better inhibitory activity,–,–,–
"COc1ccc(C(=O)/C=C/c2ccc([N+](=O)[O-])cc2)c2c1C=CC(C)(C)O2 [SKLBC-17, (E)-1-(5-methoxy-2,2-dimethyl-2H-chromen-8-yl)-3-(4-nitrophenyl)prop-2-en-1-one]",2.61 µM,7.77 µM,–,–,–,–,better inhibitory activity,3.52 µM,3.73 µM,> 10 µM
"COc1ccc(C(=O)/C=C/c2ccc(N3CCCC3)cc2)c2c1C=CC(C)(C)O2 [SKLBC-14, (E)-1-(5-methoxy-2,2-dimethyl-2H-chromen-8-yl)-3-(4-(pyrrolidin-1-yl)phenyl)prop-2-en-1-one]",4.74 µM,> 10 µM,–,–,–,–,better inhibitory activity,> 10 µM,> 10 µM,8.88 µM
"CCN(CC)c1ccc(/C=C/C(=O)c2ccc(OS(=O)(=O)c3ccc(C)cc3)c3c2OC(C)(C)C=C3)cc1 [SKLBC-46, (E)-8-(3-(4-(diethylamino)phenyl)acryloyl)-2,2-dimethyl-2H-chromen-5-yl 4-methylbenzenesulfonate]",9.7 µM,4.42 µM,9.7 µM,8.4 µM,> 10 µM,8.2 µM,better inhibitory activity,–,–,–
"COc1ccc(C(=O)/C=C/c2cccc([N+](=O)[O-])c2)c2c1C=CC(C)(C)O2 [SKLBC-18, (E)-1-(5-methoxy-2,2-dimethyl-2H-chromen-8-yl)-3-(3-nitrophenyl)prop-2-en-1-one]",2.83 µM,5.87 µM,–,–,–,–,better inhibitory activity,4.09 µM,4.26 µM,8.05 µM
"CCN(CC)c1ccc(/C=C/C(=O)c2ccc(OC(=O)C3CC3)c3c2OC(C)(C)C=C3)cc1 [SKLBC-54, (E)-8-(3-(4-(diethylamino)phenyl)acryloyl)-2,2-dimethyl-2H-chromen-5-yl cyclopropanecarboxylate]",0.533 µM,0.51 µM,0.41 µM,0.263 µM,0.773 µM,> 10 µM,better inhibitory activity,–,–,–
"COc1ccc(/C=C/C(=O)c2ccc(OC)c3c2OC(C)(C)C=C3)c(F)c1 [SKLBC-4, (E)-3-(2-fluoro-4-methoxyphenyl)-1-(5-methoxy-2,2-dimethyl-2H-chromen-8-yl)prop-2-en-1-one]",7.56 µM,> 10 µM,–,–,–,–,better inhibitory activity,6.57 µM,> 10 µM,> 10 µM
"COc1ccc(C(=O)/C=C/c2ccc3ccccc3n2)c2c1C=CC(C)(C)O2 [SKLBC-16, (E)-1-(5-methoxy-2,2-dimethyl-2H-chromen-8-yl)-3-(quinolin-2-yl)prop-2-en-1-one]",4.28 µM,3.02 µM,–,–,–,–,better inhibitory activity,2.25 µM,3.79 µM,> 10 µM
"CCN(CC)c1ccc(/C=C/C(=O)c2ccc(OC)c3c2OC(C)(C)C=C3)cc1 [SKLBC-12, (E)-3-(4-(diethylamino)phenyl)-1-(5-methoxy-2,2-dimethyl-2H-chromen-8-yl)prop-2-en-1-one]",2.3 µM,4.6 µM,–,–,–,–,better inhibitory activity,> 10 µM,1.31 µM,> 10 µM
"COc1ccc(C(=O)/C=C/c2cccc(Cl)c2)c2c1C=CC(C)(C)O2 [SKLBC-35, (E)-3-(3-chlorophenyl)-1-(5-methoxy-2,2-dimethyl-2H-chromen-8-yl)prop-2-en-1-one]",> 10 µM,> 10 µM,–,–,–,–,–,> 10 µM,> 10 µM,> 10 µM
"COc1ccc(C(=O)/C=C/c2ccccn2)c2c1C=CC(C)(C)O2 [SKLBC-33, (E)-1-(5-methoxy-2,2-dimethyl-2H-chromen-8-yl)-3-(pyridin-2-yl)prop-2-en-1-one]",5.76 µM,5.4 µM,–,–,–,–,better inhibitory activity,5 µM,2.12 µM,> 10 µM
"COc1ccc(C(=O)/C=C/c2ccc(O)c(Br)c2)c2c1C=CC(C)(C)O2 [SKLBC-29, (E)-3-(3-bromo-4-hydroxyphenyl)-1-(5-methoxy-2,2-dimethyl-2H-chromen-8-yl)prop-2-en-1-one]",> 10 µM,> 10 µM,–,–,–,–,–,> 10 µM,> 10 µM,> 10 µM
"COc1ccc(C(=O)/C=C/c2ccco2)c2c1C=CC(C)(C)O2 [SKLBC-31, (E)-3-(furan-2-yl)-1-(5-methoxy-2,2-dimethyl-2H-chromen-8-yl)prop-2-en-1-one]",> 10 µM,> 10 µM,–,–,–,–,–,> 10 µM,> 10 µM,> 10 µM
"COc1cc(/C=C/C(=O)c2ccc(OC)c3c2OC(C)(C)C=C3)cc(OC)c1O [SKLBC-30, (E)-3-(4-hydroxy-3,5-dimethoxyphenyl)-1-(5-methoxy-2,2-dimethyl-2H-chromen-8-yl)prop-2-en-1-one]",> 10 µM,> 10 µM,–,–,–,–,–,> 10 µM,> 10 µM,> 10 µM
"COc1ccc(C(=O)/C=C/c2ccc3ccccc3c2)c2c1C=CC(C)(C)O2 [SKLBC-10, (E)-1-(5-methoxy-2,2-dimethyl-2H-chromen-8-yl)-3-(naphthalen-2-yl)prop-2-en-1-one]",0.21 µM,3.67 µM,–,–,–,–,better inhibitory activity,2.14 µM,4.48 µM,> 10 µM
"COc1ccc(C(=O)/C=C/c2ccc(Br)cc2)c2c1C=CC(C)(C)O2 [SKLBC-8, (E)-3-(4-bromophenyl)-1-(5-methoxy-2,2-dimethyl-2H-chromen-8-yl)prop-2-en-1-one]",> 10 µM,> 10 µM,–,–,–,–,–,> 10 µM,> 10 µM,5.82 µM
